Four compounds from patent publication US7358250B2, “Pyrrolo[2,3-d]pyrimidines that modulate ACK1 activity” (Amgen Inc., priority 2004, dated 2008) can be followed below.

Bounds are passed on as bounds.

One data set concerns the target T1, ACK1 (Homo sapiens, UniProt Q07912).
T1 construct: a fusion of an N-terminal (His)6 Tag with amino acids 117 to 489 of ACK1; (His)6 (N); made in house; host or cells: baculovirus infected Hi-5 insect cells
The experiment in a line: ACK1 Enzymatic Assay. The data set is classed as biochemical. The conditions noted are these: 5 μM ATP, ELISA phosphotyrosine readout. How it is done:
IC50 values of inventive compounds may be assessed as follows. […] The substrate of for the reaction is ACK1 itself (autophosphorylation) and poly-Glutamic acid-Tyrosine (PGT (4:1), Sigma catalog #PO275). The PGT is coated to Nunc 96 well plates at 80 μg/mL overnight at 4° C. […] Test compounds are added in 10 μL DMSO, and the reaction is started by addition of 10 μL kinase in assay buffer. The reaction proceeds 2 h at room temperature. Next the plates are washed four times, and the level of tyrosine phosphorylation in a given well is quantified by standard ELISA assay utilizing a phosphotyrosine antibody (PY20, Pierce).
(In general: An ELISA detects its analyte on a solid surface through an enzyme-linked reagent.)

For a further data set, the target named is T2, LCK (Homo sapiens, UniProt P06239).
T2 construct: 15 μL of LCK KD GST (225-509) for a final volume of 40 μL; GST
The experiment in a line: LCK-Homogeneous Time Resolved Fluorescent (HTRF) Kinase Assay. The format is biochemical. The conditions noted are these: LCK KD GST (225-509). The protocol:
The LCK HTRF assay begins with LCK in the presence of ATP phosphorylating the biotinylated peptide Gastrin. The reaction incubates for 90 min. To quench the assay detection reagents are added which both stop the reaction by diluting out the enzyme and chelating the metals due to the presence of EDTA. Once the detection reagents are added the assay incubates for 30 min to allow for equilibration of the detection reagents.
The final concentration of gastrin is 1.2 μM. The final concentration of ATP is 0.5 μM (Km app=[…]) and the final concentration of LCK is […]. Buffer conditions are as follows: 50 mM HEPES pH 7.5, 50 mM NaCl, 20 mM MgCl, 5 mM MnCl, 2 mM DTT, 0.05% BSA.
The assay is quenched and stopped with 160 μL of detection reagent. Detection reagents are as follows: Buffer made of 50 mM Tris, pH 7.5, 100 mM NaCl, 3 mM EDTA, 0.05% BSA, 0.1% Tween20. Added to this buffer prior to reading is Steptavidin allophycocyanin (SA-APC) at a final conc in the assay of 0.0004 mg/mL, and europilated anti-phosphotyrosine Ab (Eu-anti-PY) at a final conc of 0.025 nM.
The assay plate is read in either a Discovery or a RubyStar. The eu-anti-PY is excited at 320 nm and emits at 615 nm to excite the SA-APC which in turn emits at 655 nm. The ratio of SA-APC at 655 nm (excited due to close proximity to the Eu-anti-PY because of phosphorylation of the peptide) to free Eu-anti-PY at 615 nm will give substrate phosphorylation.

The test system of the next data set is C8 cells. The data set is described as follows: ACK1 Cell Based Assay, test (C8) cell line. As to conditions: 0.125% FCS, 20 to 24 h; for IC50: cell viability (Cytotox One kit). The protocol: (§1) The ACK1 cell based assay is designed to find inhibitors of ACK1 kinase activity which would be prime candidates for the development of anticancer drugs. […] This dependency was confirmed utilizing ACK1 specific siRNAs.
(§2) For this assay, test (C8) and control (HeLa) cell lines are seeded in 96 well tissue culture plates (BD Falcon) at a density of 2 to 4×10^4 in DMEM/F12 (C8) or DMEM (HeLa) with 0.125% FCS in the presence of ACK1 inhibitors (final DMSO concentration is 0.5%, all tissue culture media are from Cellgro). After 20 to 24 h incubation at 37° C. and 5% CO2, cell viability is determined using the Cytotox One kit (Promega) according to the manufacturer's instructions.

Another data set deals with HeLa cells. The experiment in a line: ACK1 Cell Based Assay, control (HeLa) cell line. The conditions noted are these: 0.125% FCS, 20 to 24 h. The protocol:
as §1, §2

T1 sequence (Q07912 117-489): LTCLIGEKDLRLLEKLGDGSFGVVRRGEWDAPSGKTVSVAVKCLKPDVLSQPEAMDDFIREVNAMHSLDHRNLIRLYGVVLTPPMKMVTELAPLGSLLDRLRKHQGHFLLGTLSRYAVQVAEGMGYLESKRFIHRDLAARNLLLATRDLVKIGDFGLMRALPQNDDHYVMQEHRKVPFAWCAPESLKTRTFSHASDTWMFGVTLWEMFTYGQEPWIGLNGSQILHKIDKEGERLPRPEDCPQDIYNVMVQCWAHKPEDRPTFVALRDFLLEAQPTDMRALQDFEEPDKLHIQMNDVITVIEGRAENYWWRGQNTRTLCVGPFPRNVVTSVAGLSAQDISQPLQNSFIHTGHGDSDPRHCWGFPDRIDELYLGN
T2 sequence (P06239 225-509): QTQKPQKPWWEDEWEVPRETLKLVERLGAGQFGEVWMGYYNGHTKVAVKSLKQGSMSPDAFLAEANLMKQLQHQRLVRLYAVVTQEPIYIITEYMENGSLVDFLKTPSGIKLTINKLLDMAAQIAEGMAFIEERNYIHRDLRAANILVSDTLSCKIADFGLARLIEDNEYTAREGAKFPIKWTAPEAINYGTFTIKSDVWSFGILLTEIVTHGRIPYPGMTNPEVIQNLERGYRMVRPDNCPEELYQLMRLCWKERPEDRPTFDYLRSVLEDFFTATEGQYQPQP

For the compound `CN(C)CCOc1ccc(-c2[nH]c3ncnc(NC[C@@H]4CCCO4)c3c2-c2ccccc2)cc1` [Example 20, {6-[4-(2-Dimethylamino-ethoxy)-phenyl]-5-phenyl-7H-pyrrolo[2,3-d]pyrimidin-4-yl}-(tetrahydro-furan-2-ylmethyl)-amine], the Ki (in general, the dissociation constant of the complex between target and ligand, obtained from inhibition or displacement) on ACK1 was under 10 nM. This compound also had a Ki on LCK of under 10 nM. In addition, in the data set with C8 cells, the “cytotoxicity to C8 cells” value was “cytotoxic” and the half-inhibitory concentration (IC50) (in general, the point on the concentration scale where inhibition reaches its midpoint) was in the range of 10 to 100 nM. The “cytotoxic effect on HeLa cells” value in the data set with HeLa cells is recorded as “no cytotoxic effect”.

Regarding `O=C(NCCN1CCOCC1)c1ccc(-c2[nH]c3ncnc(NCC4CCCO4)c3c2-c2ccccc2)cc1` (centres unmarked) [Example 31, N-(2-Morpholin-4-yl-ethyl)-4-{5-phenyl-4-[(tetrahydrofuran-2-ylmethyl)-amino]-7H-pyrrolo[2,3-d]pyrimidin-6-yl}-benzamide], the Ki on ACK1 and on LCK was under 10 nM throughout. In the data set on C8 cells, this compound returned an IC50 of over 100 nM.

For the compound `CN(C)CCNC(=O)c1ccc(-c2[nH]c3ncnc(NCC4CCCO4)c3c2-c2ccccc2)cc1` (centres unmarked) [Example 32, N-(2-Dimethylamino-ethyl)-4-{5-phenyl-4-[(tetrahydrofuran-2-ylmethyl)-amino]-7H-pyrrolo[2,3-d]pyrimidin-6-yl}-benzamide], the inhibition constant (Ki) on ACK1 and on LCK was under 10 nM in each case. The compound further came in with an IC50 in the data set with C8 cells of 10 to 100 nM.

For `CN(C)CCOc1ccc(-c2[nH]c3ncnc(NCC4CCC4)c3c2-c2ccccc2)cc1` [Example 34, Cyclobutylmethyl-{6-[4-(2-dimethylamino-ethoxy)-phenyl]-5-phenyl-7H-pyrrolo[2,3-d]pyrimidin-4-yl}-amine], the Ki is 10 to 100 nM at ACK1 and under 10 nM at LCK. The compound also came in with an IC50 with C8 cells of over 100 nM.
